Among the data in US20230265151A1, “GIP/GLP1 CO-AGONIST COMPOUNDS” (priority 2020, published 2023) are EC50 and Emax values, retold here.

Where two headings read alike, the source gives them in different places. Some results are limits rather than exact numbers.

What all share (format): cell-based
The target in test [1] is T1, hGIPR (Homo sapiens, UniProt P48546).
T1 construct: expressed in transfected cells
T1 sequence (P48546 22-466): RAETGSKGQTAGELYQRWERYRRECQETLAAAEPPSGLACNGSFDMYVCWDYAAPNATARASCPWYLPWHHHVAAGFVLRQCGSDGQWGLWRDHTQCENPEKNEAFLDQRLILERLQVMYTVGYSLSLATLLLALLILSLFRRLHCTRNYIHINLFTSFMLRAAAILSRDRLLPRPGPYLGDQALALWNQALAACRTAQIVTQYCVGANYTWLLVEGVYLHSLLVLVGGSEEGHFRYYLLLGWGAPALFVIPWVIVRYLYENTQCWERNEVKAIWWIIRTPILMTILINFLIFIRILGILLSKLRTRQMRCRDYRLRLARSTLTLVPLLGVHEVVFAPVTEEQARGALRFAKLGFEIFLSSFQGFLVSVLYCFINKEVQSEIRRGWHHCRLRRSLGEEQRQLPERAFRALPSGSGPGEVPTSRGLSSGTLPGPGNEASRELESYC
The experiment in a line: Functional cAMP formation (HTRF) in HEK-293 clonal cells expressing hGIPR, 0.1% bovine casein, without or with 1.0% human serum albumin. Conditions: for EC50: geometric mean. Summed up: (§1)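 Readings of the HTRF 665/620 nm ratio, which falls as cAMP rises, were converted to nM cAMP using a standard curve after 30 min peptide exposure at 37° C.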

Test [2] has as its target T2, hGCGR (Homo sapiens, UniProt P47871).
T2 construct: expressed in transfected cells
Nature of the test: Functional cAMP formation (HTRF) in HEK-293 clonal cells expressing hGCGR, 0.1% bovine casein, without or with 1.0% human serum albumin. The gist of the method: as §1

Test [3] addresses hGLP-1R (Homo sapiens, UniProt P43220). The experiment in a line: Functional cAMP formation (HTRF) in HEK-293 clonal cells expressing hGLP-1R, 0.1% bovine casein, without or with 1.0% human serum albumin. More on the design: expressed in transfected cells. Conditions: for EC50: geometric mean. Summed up:
as §1

Where [4] appears, read: hGIPR EC50, nM (SEM, n), cAMP, 37° C., 0.1% bovine casein (no human serum albumin).
The mark [5] stands for this setting: hGCGR EC50, nM (SEM, n), cAMP, 37° C., 0.1% bovine casein (no human serum albumin), geometric mean.
The mark [6] stands for this setting: hGCGR EC50, nM (SEM, n), cAMP, 37° C., 0.1% bovine casein and 1.0% human serum albumin, geometric mean (SEM, n).
Where [7] appears, read: hGLP-1R EC50, nM (SEM, n), cAMP, 37° C., 0.1% bovine casein (no human serum albumin).
Setting [8] is: HEK293, 0.1% bovine casein and 1.0% human serum albumin, 37° C., percent of maximal response to GIP(1-42)NH2, read-out: hGIPR Emax, % ± SEM.
Setting [9] is: cAMP, incubated at 37° C., 0.1% bovine casein (no human serum albumin), read-out: hGIPR EC50, nM (SEM, n).
[10] abbreviates: 0.1% bovine casein and 1.0% human serum albumin, 37° C., geometric mean, read-out: hGCGR EC50, nM (SEM, n).
[11] abbreviates: cAMP, incubated at 37° C., 0.1% bovine casein (no human serum albumin), geometric mean, read-out: hGCGR EC50, nM (SEM, n).
Setting [12] is: 0.1% bovine casein and 1.0% human serum albumin, 37° C., read-out: hGLP-1R EC50, nM (SEM, n).
Where [13] appears, read: cAMP, incubated at 37° C., 0.1% bovine casein (no human serum albumin), read-out: hGLP-1R EC50, nM (SEM, n).

T2 sequence (P47871 26-477): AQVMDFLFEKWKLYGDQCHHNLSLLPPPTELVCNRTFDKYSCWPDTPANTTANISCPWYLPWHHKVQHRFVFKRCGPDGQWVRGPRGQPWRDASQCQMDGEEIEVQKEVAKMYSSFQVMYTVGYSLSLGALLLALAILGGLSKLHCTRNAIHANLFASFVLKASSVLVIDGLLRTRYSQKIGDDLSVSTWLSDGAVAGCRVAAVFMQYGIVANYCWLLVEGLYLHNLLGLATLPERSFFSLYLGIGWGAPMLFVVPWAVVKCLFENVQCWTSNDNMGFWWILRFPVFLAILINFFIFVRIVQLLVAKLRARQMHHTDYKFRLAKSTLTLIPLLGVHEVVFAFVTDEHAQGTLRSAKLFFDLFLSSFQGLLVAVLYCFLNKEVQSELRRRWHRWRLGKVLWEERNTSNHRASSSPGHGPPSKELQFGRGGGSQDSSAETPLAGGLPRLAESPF
hGLP-1R, sequence (P43220 24-463): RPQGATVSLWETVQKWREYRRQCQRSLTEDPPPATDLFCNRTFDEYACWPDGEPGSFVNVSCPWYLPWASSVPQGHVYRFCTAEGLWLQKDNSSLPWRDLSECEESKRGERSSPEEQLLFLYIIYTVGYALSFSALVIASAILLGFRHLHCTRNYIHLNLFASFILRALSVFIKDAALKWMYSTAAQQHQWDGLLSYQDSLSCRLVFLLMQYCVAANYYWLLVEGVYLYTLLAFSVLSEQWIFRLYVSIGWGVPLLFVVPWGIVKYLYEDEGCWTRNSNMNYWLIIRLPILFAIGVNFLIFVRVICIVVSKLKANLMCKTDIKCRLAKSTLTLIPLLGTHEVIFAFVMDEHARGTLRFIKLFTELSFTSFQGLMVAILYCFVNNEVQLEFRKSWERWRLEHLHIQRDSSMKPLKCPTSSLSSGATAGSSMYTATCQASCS

For the compound `CC[C@H](C)[C@H](NC(=O)[C@H](CC(C)C)NC(=O)[C@](C)(Cc1ccc(O)cc1)NC(=O)[C@H](CCCCNC(=O)COCCOCCNC(=O)COCCOCCNC(=O)CC[C@H](NC(=O)CCCCCCCCCOc1ccc(C(=O)O)cc1)C(=O)O)NC(=O)[C@@H](NC(=O)[C@H](Cc1ccccc1)NC(=O)[C@H](CCCN)NC(=O)C(C)(C)NC(=O)[C@H](CCC(N)=O)NC(=O)[C@H](C)NC(=O)[C@H](CCC(N)=O)NC(=O)[C@H](CCCN)NC(=O)[C@H](CC(=O)O)NC(=O)[C@H](CC(C)C)NC(=O)[C@](C)(CC(C)C)NC(=O)[C@@H](NC(=O)C(C)(C)NC(=O)[C@@H](NC(=O)[C@H](CC(=O)O)NC(=O)[C@H](CO)NC(=O)[C@@H](NC(=O)[C@](C)(Cc1ccccc1F)NC(=O)[C@@H](NC(=O)CNC(=O)[C@H](CCC(=O)O)NC(=O)C(C)(C)NC(=O)[C@@H](N)Cc1ccc(O)cc1)[C@@H](C)O)[C@@H](C)O)C(C)C)[C@@H](C)CC)[C@@H](C)CC)C(=O)N[C@@H](CCCCNC(=O)COCCOCCNC(=O)COCCOCCNC(=O)CC[C@H](NC(=O)CCCCCCCCCOc1ccc(C(=O)O)cc1)C(=O)O)C(=O)NCC(=O)NCC(=O)N1CCC[C@H]1C(=O)N[C@@H](CO)C(=O)N[C@@H](CO)C(=O)NCC(=O)N[C@@H](C)C(=O)N1CCC[C@H]1C(=O)N1CCC[C@H]1C(=O)N1CCC[C@H]1C(=O)N[C@@H](CO)C(N)=O` [Example 447], the EC50 is 0.017 nM in test [1] (setting [4]), more than 9950 nM in test [2] (setting [5]), more than 9950 nM in test [2] (setting [6]) and 0.219 nM in test [3] (setting [7]). In addition, the Emax in test [3] (HEK293, read-out: hGLP-1R Emax, % ± SEM, cAMP, 37° C., 0.1% bovine casein, percent of maximal response to GLP-1(7-36)NH2, arithmetic mean) was 105%.

`CC[C@H](C)[C@H](NC(=O)[C@H](CC(C)C)NC(=O)[C@](C)(Cc1ccc(O)cc1)NC(=O)[C@@H](CCC(=O)O)NC(=O)[C@@H](NC(=O)[C@H](Cc1ccccc1)NC(=O)[C@H](CCCCNC(=O)COCCOCCNC(=O)CC[C@H](NC(=O)CCCCCCCCCCCCC(=O)O)C(=O)O)NC(=O)C(C)(C)NC(=O)[C@H](CCC(N)=O)NC(=O)[C@H](C)NC(=O)[C@H](CCCCNC(=O)COCCOCCNC(=O)CC[C@H](NC(=O)CCCCCCCCCCCCC(=O)O)C(=O)O)NC(=O)[C@H](CCCN)NC(=O)[C@H](CC(=O)O)NC(=O)[C@H](CC(C)C)NC(=O)[C@](C)(CC(C)C)NC(=O)[C@@H](NC(=O)[C@H](CO)NC(=O)[C@H](Cc1ccncc1)NC(=O)[C@H](CC(=O)O)NC(=O)[C@H](CO)NC(=O)[C@@H](NC(=O)[C@](C)(Cc1ccccc1F)NC(=O)[C@@H](NC(=O)CNC(=O)[C@H](CCC(=O)O)NC(=O)C(C)(C)NC(=O)[C@@H](N)Cc1ccc(O)cc1)[C@@H](C)O)[C@@H](C)O)[C@@H](C)CC)[C@@H](C)CC)C(=O)N[C@@H](CCC(=O)O)C(=O)NCC(=O)NCC(=O)N1CCC[C@H]1C(=O)N[C@@H](CO)C(=O)N[C@@H](CO)C(=O)NCC(=O)N[C@@H](C)C(=O)N1CCC[C@H]1C(=O)N1CCC[C@H]1C(=O)N1CCC[C@H]1C(=O)N[C@@H](CO)C(N)=O` [Example 76]: the EC50 in test [1] (0.1% bovine casein and 1.0% human serum albumin, 37° C., read-out: hGIPR EC50, nM (SEM, n)) is 1.4 nM; in test [1] (setting [9]) it was 0.0205 nM; in test [2] (setting [10]) it was more than 9950 nM; in test [2] (setting [11]), more than 9950 nM; in test [3] (setting [12]), 28.9 nM; in test [3] (setting [13]), 0.527 nM. The Emax in test [1] (setting [8]) was determined as 89.9 ± 2.11%.

Take `CC[C@H](C)[C@H](NC(=O)[C@H](CCCN)NC(=O)[C@H](CC(=O)O)NC(=O)[C@H](CC(C)C)NC(=O)[C@](C)(CC(C)C)NC(=O)[C@@H](NC(=O)C(C)(C)NC(=O)[C@@H](NC(=O)[C@H](CC(=O)O)NC(=O)[C@H](CO)NC(=O)[C@@H](NC(=O)[C@](C)(Cc1ccccc1F)NC(=O)[C@@H](NC(=O)CNC(=O)[C@H](CCC(=O)O)NC(=O)C(C)(C)NC(=O)[C@@H](N)Cc1ccc(O)cc1)[C@@H](C)O)[C@@H](C)O)C(C)C)[C@@H](C)CC)C(=O)N[C@@H](C)C(=O)N[C@@H](CCC(N)=O)C(=O)NC(C)(C)C(=O)N[C@@H](CCC(=O)O)C(=O)N[C@@H](Cc1ccccc1)C(=O)N[C@H](C(=O)N[C@@H](CCCCNC(=O)COCCOCCNC(=O)COCCOCCNC(=O)COCCOCCNC(=O)CC[C@H](NC(=O)CCCCCCCCCOc1ccc(C(=O)O)cc1)C(=O)O)C(=O)N[C@@](C)(Cc1ccc(O)cc1)C(=O)N[C@@H](CC(C)C)C(=O)N[C@H](C(=O)N[C@@H](CCCCNC(=O)COCCOCCNC(=O)COCCOCCNC(=O)COCCOCCNC(=O)CC[C@H](NC(=O)CCCCCCCCCOc1ccc(C(=O)O)cc1)C(=O)O)C(=O)NCC(=O)NCC(=O)N1CCC[C@H]1C(=O)N[C@@H](CO)C(=O)N[C@@H](CO)C(=O)NCC(=O)N[C@@H](C)C(=O)N1CCC[C@H]1C(=O)N1CCC[C@H]1C(=O)N1CCC[C@H]1C(=O)N[C@@H](CO)C(N)=O)[C@@H](C)CC)[C@@H](C)CC` [Example 347]: the Emax in test [1] (HEK293, read-out: hGIPR Emax, % ± SEM, cAMP, 37° C., 0.1% bovine casein and 1.0% human serum albumin, percent of maximal response to GIP(1-42)NH2) amounted to 84.6%; in test [1] (HEK293, read-out: hGIPR Emax, % ± SEM, cAMP, 37° C., 0.1% bovine casein, percent of maximal response to GIP(1-42)NH2, arithmetic mean), 98%. In addition, the EC50 is 0.0259 nM in test [1] (setting [4]), more than 9950 nM in test [2] (setting [5]), more than 9950 nM in test [2] (setting [6]) and 0.356 nM in test [3] (setting [7]).

On to `CC[C@H](C)[C@H](NC(=O)[C@H](CCCN)NC(=O)[C@H](CC(=O)O)NC(=O)[C@H](CC(C)C)NC(=O)[C@](C)(CC(C)C)NC(=O)[C@@H](NC(=O)[C@](C)(CO)NC(=O)[C@H](Cc1ccncc1)NC(=O)[C@H](CC(=O)O)NC(=O)[C@H](CO)NC(=O)[C@@H](NC(=O)[C@](C)(Cc1ccccc1F)NC(=O)[C@@H](NC(=O)CNC(=O)[C@H](CCC(=O)O)NC(=O)C(C)(C)NC(=O)[C@@H](N)Cc1ccc(O)cc1)[C@@H](C)O)[C@@H](C)O)[C@@H](C)CC)C(=O)N[C@@H](C)C(=O)N[C@@H](CCC(N)=O)C(=O)NC(C)(C)C(=O)N[C@@H](CCC(=O)O)C(=O)N[C@@H](Cc1ccccc1)C(=O)N[C@H](C(=O)N[C@@H](CCCCNC(=O)COCCOCCNC(=O)COCCOCCNC(=O)CC[C@H](NC(=O)CCCCCCCCCCCCC(=O)O)C(=O)O)C(=O)N[C@@](C)(Cc1ccc(O)cc1)C(=O)N[C@@H](CC(C)C)C(=O)N[C@H](C(=O)N[C@@H](CCCCNC(=O)COCCOCCNC(=O)COCCOCCNC(=O)CC[C@H](NC(=O)CCCCCCCCCCCCC(=O)O)C(=O)O)C(=O)NCC(=O)NCC(=O)N1CCC[C@H]1C(=O)N[C@@H](CO)C(=O)N[C@@H](CO)C(=O)NCC(=O)N[C@@H](C)C(=O)N1CCC[C@H]1C(=O)N1CCC[C@H]1C(=O)N1CCC[C@H]1C(=O)N[C@@H](CO)C(N)=O)[C@@H](C)CC)[C@@H](C)CC` [Example 216], for which the Emax in test [1] (setting [8]) worked out at 63.4%; in test [1] (HEK293, percent of maximal response to GIP(1-42)NH2, 37° C., 0.1% bovine casein, arithmetic mean, read-out: hGIPR Emax, % ± SEM), 88.5%; in test [3] (HEK293, 0.1% bovine casein and 1.0% human serum albumin, 37° C., percent of maximal response to GLP-1(7-36)NH2, read-out: hGLP-1R Emax, % ± SEM), 117%; in test [3] (HEK293, percent of maximal response to GLP-1(7-36)NH2, 37° C., 0.1% bovine casein, arithmetic mean, read-out: hGLP-1R Emax, % ± SEM), 93.6%. Moreover, the EC50 is 0.0287 nM in test [1] (setting [9]); more than 9950 nM in test [2] (setting [10]); more than 9950 nM in test [2] (setting [11]); 32.3 nM in test [3] (setting [12]); 0.384 nM in test [3] (setting [13]).
